Laboratory results taken from US9902728B2, “Pyrrolo and pyrazolopyrimidines as ubiquitin-specific protease 7 inhibitors” (Forma Therapeutics, Inc., priority 2014, dated 2018).

What follows are molecules tested against T1, USP7 (Homo sapiens, UniProt Q93009) (assay: USP7 Assay A (Ubitquin-Rhodamine 110 Assay)). Conditions: USP7 activity in USP7 assay A and B (table does not say which assay per compound); read-out: USP7_IC50.
T1 construct: USP7, construct USP7 (208-1102) 6*His, Viva Biotech; 6xHis (C); purchased Viva Biotech
T1 sequence (Q93009 208-1102): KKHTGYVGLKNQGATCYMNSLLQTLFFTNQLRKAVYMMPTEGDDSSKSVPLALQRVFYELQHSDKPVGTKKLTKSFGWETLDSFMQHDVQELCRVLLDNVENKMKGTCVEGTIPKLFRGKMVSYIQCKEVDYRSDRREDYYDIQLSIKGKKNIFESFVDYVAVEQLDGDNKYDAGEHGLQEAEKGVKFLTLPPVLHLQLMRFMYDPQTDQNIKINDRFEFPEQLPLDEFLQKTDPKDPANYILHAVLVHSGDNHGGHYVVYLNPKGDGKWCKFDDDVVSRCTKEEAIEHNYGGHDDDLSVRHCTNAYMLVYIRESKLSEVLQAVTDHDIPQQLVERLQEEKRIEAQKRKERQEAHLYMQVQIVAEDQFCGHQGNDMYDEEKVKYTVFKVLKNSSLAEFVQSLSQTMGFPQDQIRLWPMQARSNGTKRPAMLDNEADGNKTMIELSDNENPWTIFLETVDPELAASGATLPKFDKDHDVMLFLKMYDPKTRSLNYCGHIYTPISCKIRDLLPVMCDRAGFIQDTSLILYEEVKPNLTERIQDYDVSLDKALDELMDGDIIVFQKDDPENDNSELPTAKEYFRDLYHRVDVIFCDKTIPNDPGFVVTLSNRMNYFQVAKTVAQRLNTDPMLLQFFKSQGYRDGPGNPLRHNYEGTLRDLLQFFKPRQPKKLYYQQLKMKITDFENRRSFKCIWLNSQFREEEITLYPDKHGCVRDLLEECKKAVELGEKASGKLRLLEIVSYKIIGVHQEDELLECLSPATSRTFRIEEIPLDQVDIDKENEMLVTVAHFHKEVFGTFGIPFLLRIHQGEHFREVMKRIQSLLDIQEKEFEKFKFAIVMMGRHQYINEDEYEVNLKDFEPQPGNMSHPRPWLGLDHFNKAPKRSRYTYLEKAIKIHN
Format: biochemical
Outline: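 Ub-Rh110 cleavage in 20 mM Tris-HCl pH 8.0 with 1 mM GSH, 0.03% BGG, 0.01% Triton X-100; compound preincubated with enzyme 30 min before substrate.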

SMILES	IC50
O=C(C[C@H](C(F)F)n1ccc(F)n1)N1CCC(O)(Cn2cnc3c(cnn3-c3cccc(N4CC5CC5C4)c3)c2=O)CC1 (stereo partly shown) [Compound I-791]	200 to 1000 nM
CN1CCN(c2cccc(-n3ccc4c(=O)n(CC5(O)CCN(C(=O)C[C@H](C(F)F)n6cccn6)CC5)cnc43)c2)CC1 [Compound I-792]	200 to 1000 nM
CN1CCN(c2cccc(-n3ccc4c(=O)n(CC5(O)CCN(C(=O)C[C@@H](C(F)F)n6cccn6)CC5)cnc43)c2)CC1 [Compound I-793]	< 200 nM
Cn1nccc1O[C@H]1CC[C@H](C(=O)N2CCC(O)(Cn3cnc4c(ccn4-c4ccc(F)cc4)c3=O)CC2)CC1 [Compound I-794]	200 to 1000 nM
Cc1ccc(-n2ncc3c(=O)n(CC4(O)CCN(C(=O)C[C@H](C(F)F)n5ccc(F)n5)CC4)cnc32)cc1 [Compound I-796]	< 200 nM
Cc1ccc(-n2ncc3c(=O)n(CC4(O)CCN(C(=O)C[C@@H](C(F)F)n5ccc(F)n5)CC4)cnc32)cc1 [Compound I-797]	1000 to 10000 nM
O=C(c1cnn(C2CC2)c1)N1CCC(O)(Cn2cnc3c(cnn3-c3ccc(C4CC4)cc3)c2=O)CC1 [Compound I-798]	200 to 1000 nM
Cc1ncc(C(=O)N2CCC(O)(Cn3cnc4c(cnn4-c4ccc(C5CC5)cc4)c3=O)CC2)o1 [Compound I-799]	200 to 1000 nM
Cc1cc(N[C@H]2CC[C@H](C(=O)N3CCC(O)(Cn4cnc5c(cnn5-c5ccc(F)cc5)c4=O)CC3)CC2)no1 [Compound I-806]	200 to 1000 nM
Cc1cc(N[C@H]2CC[C@@H](C(=O)N3CCC(O)(Cn4cnc5c(cnn5-c5ccc(F)cc5)c4=O)CC3)CC2)no1 [Compound I-807]	1000 to 10000 nM
CN1CC(O)(COc2ccc(-n3ncc4c(=O)n(CC5(O)CCN(C(=O)c6ccc(F)cc6)CC5)cnc43)cc2)C1 [Compound I-816]	< 200 nM
O=C(c1cnc(C2CC2)o1)N1CCC(O)(Cn2cnc3c(cnn3-c3ccc(OC4CCC(F)(F)CC4)cc3)c2=O)CC1 [Compound I-817]	< 200 nM
CN1CCN(c2ccn(-c3ccc(-n4ncc5c(=O)n(CC6(O)CCN(C(=O)C7CC7)CC6)cnc54)cc3)n2)CC1 [Compound I-818]	< 200 nM
O=C(C1CC1)N1CCC(O)(Cn2cnc3c(cnn3-c3ccc(-n4cc(N5CCOCC5)cn4)cc3)c2=O)CC1 [Compound I-819]	200 to 1000 nM
O=C(c1ccc(F)cc1)N1CCC(O)(Cn2cnc3c(cnn3-c3ccc(-n4ncc5c4CCOC5)cc3)c2=O)CC1 [Compound I-820]	200 to 1000 nM
O=C(C[C@H](C(F)F)n1cccn1)N1CCC(O)(Cn2cnc3c(cnn3-c3ccc(N4CCCCC4)cc3)c2=O)CC1 [Compound I-821]	1000 to 10000 nM
O=C(C[C@@H](C(F)F)n1cccn1)N1CCC(O)(Cn2cnc3c(cnn3-c3ccc(N4CCCCC4)cc3)c2=O)CC1 [Compound I-822]	200 to 1000 nM
CN1CCN(c2ccc(-n3ncc4c(=O)n(CC5(O)CCN(C(=O)CC(C(F)F)n6cccn6)CC5)cnc43)cc2)CC1 (stereo not shown) [Compound I-825]	< 200 nM
CN1CCN(c2ccc(-n3ncc4c(=O)n(CC5(O)CCN(C(=O)C[C@H](C(F)F)n6cccn6)CC5)cnc43)cc2)CC1 [Compound I-826]	< 200 nM
CN1CCN(c2cccc(-n3ncc4c(=O)n(CC5(O)CCN(C(=O)C[C@H](C(F)F)n6cccn6)CC5)cnc43)c2)CC1 [Compound I-829]	< 200 nM
CN1CCN(c2cccc(-n3ncc4c(=O)n(CC5(O)CCN(C(=O)C[C@@H](C(F)F)n6cccn6)CC5)cnc43)c2)CC1 [Compound I-830]	200 to 1000 nM
C=CC(=O)N1CCC1C(=O)N1CCC(O)(Cn2cnc3c(cnn3-c3cccc(N4CCN(C)CC4)c3)c2=O)CC1 (stereo not shown) [Compound I-831]	< 200 nM
C=CC(=O)N1CCC1C(=O)N1CCC(O)(Cn2cnc3c(cnn3-c3ccc(N4CCN(C)CC4)cc3)c2=O)CC1 (stereo not shown) [Compound I-832]	< 200 nM
C[C@]1(O)CCN(c2ccc(-n3ncc4c(=O)n(CC5(O)CCN(C(=O)C[C@H](C(F)F)n6cccn6)CC5)cnc43)cc2)C1 [Compound I-833]	< 200 nM
C[C@@]1(O)CCN(c2ccc(-n3ncc4c(=O)n(CC5(O)CCN(C(=O)C[C@H](C(F)F)n6cccn6)CC5)cnc43)cc2)C1 [Compound I-834]	1000 to 10000 nM

SMILES	IC50
C[C@]1(O)CCN(c2ccc(-n3ncc4c(=O)n(CC5(O)CCN(C(=O)C[C@@H](C(F)F)n6cccn6)CC5)cnc43)cc2)C1 [Compound I-835]	< 200 nM
C[C@@]1(O)CCN(c2ccc(-n3ncc4c(=O)n(CC5(O)CCN(C(=O)C[C@@H](C(F)F)n6cccn6)CC5)cnc43)cc2)C1 [Compound I-836]	1000 to 10000 nM
C[C@@H](CC(=O)N1CCC(O)(Cn2cnc3c(cnn3-c3ccc(N4CC[C@](C)(O)C4)cc3)c2=O)CC1)n1cccn1 [Compound I-837]	< 200 nM
C[C@@H](CC(=O)N1CCC(O)(Cn2cnc3c(cnn3-c3ccc(N4CC[C@@](C)(O)C4)cc3)c2=O)CC1)n1cccn1 [Compound I-838]	1000 to 10000 nM
C[C@H](CC(=O)N1CCC(O)(Cn2cnc3c(cnn3-c3ccc(N4CC[C@](C)(O)C4)cc3)c2=O)CC1)n1cccn1 [Compound I-839]	< 200 nM
C[C@H](CC(=O)N1CCC(O)(Cn2cnc3c(cnn3-c3ccc(N4CC[C@@](C)(O)C4)cc3)c2=O)CC1)n1cccn1 [Compound I-840]	1000 to 10000 nM
CNC1CCN(c2ccc(-c3ccc(-n4ncc5c(=O)n(CC6(O)CCN(C(=O)C7CC7)CC6)cnc54)cc3)cn2)C1 (stereo not shown) [Compound I-845]	< 200 nM
Cc1ncc(C(=O)N2CCC(O)(Cn3cnc4c(cnn4-c4ccc(C5CCC5)cc4)c3=O)CC2)o1 [Compound I-846]	200 to 1000 nM
O=C(c1cnc(C2CC2)o1)N1CCC(O)(Cn2cnc3c(cnn3-c3ccc(C4CCC4)cc3)c2=O)CC1 [Compound I-847]	200 to 1000 nM
O=C(c1cnc(C2CC2)o1)N1CCC(O)(Cn2cnc3c(ccn3-c3ccc(F)cc3)c2=O)CC1 [Compound I-849]	< 200 nM
Cc1cc2c(=O)n(CC3(O)CCN(C(=O)c4cnc(C5CC5)o4)CC3)cnc2n1-c1ccc(F)cc1 [Compound I-850]	200 to 1000 nM
O=C(C1CCC(Oc2ccccn2)CC1)N1CCC(O)(Cn2cnc3c(cnn3-c3ccc(CO)cc3)c2=O)CC1 (stereo not shown) [Compound I-852]	< 200 nM
O=C(C1CCC(Oc2ccccn2)CC1)N1CCC(O)(Cn2cnc3c(cnn3-c3ccc(CO)cc3)c2=O)CC1 (stereo not shown) [Compound I-853]	200 to 1000 nM
O=C(C[C@H](C(F)F)n1cccn1)N1CCC(O)(Cn2cnc3c(cnn3-c3ccc(CN4CCC4)cc3)c2=O)CC1 [Compound I-855]	< 200 nM
O=C(C[C@H](n1cccn1)C(F)(F)F)N1CCC(O)(Cn2cnc3c(cnn3-c3ccc(F)cc3)c2=O)CC1 [Compound I-912]	1000 to 10000 nM
O=C(C[C@@H](n1cccn1)C(F)(F)F)N1CCC(O)(Cn2cnc3c(cnn3-c3ccc(F)cc3)c2=O)CC1 [Compound I-913]	1000 to 10000 nM
O=C(c1cnc(N2CCC(O)CC2)o1)N1CCC(O)(Cn2cnc3c(cnn3-c3ccc(F)cc3)c2=O)CC1 [Compound I-915]	1000 to 10000 nM
Cc1ccc(-n2ncc3c(=O)n(CC4(O)CCN(C(=O)C5CC(Oc6ccccn6)C5)CC4)cnc32)cc1 (stereo not shown) [Compound I-917]	1000 to 10000 nM
O=C(C[C@@H](C(F)F)n1cc(F)cn1)N1CCC(O)(Cn2cnc3c(cnn3-c3ccc(F)cc3)c2=O)CC1 [Compound I-918]	> 10000 nM
O=C(c1ccc(-n2cnnc2)cc1)N1CCC(O)(Cn2cnc3c(cnn3-c3ccc(Cl)cc3)c2=O)CC1 [Compound I-919]	1000 to 10000 nM
CN1CCC(Oc2ccc(C(=O)N3CCC(O)(Cn4cnc5c(cnn5-c5ccc(Cl)cc5)c4=O)CC3)cn2)C1 (stereo not shown) [Compound I-920]	1000 to 10000 nM
Cn1cc(C(=O)N2CCC(O)(Cn3cnc4c(cnn4-c4ccc(F)cc4)c3=O)CC2)c(Cn2cccn2)n1 [Compound I-921]	1000 to 10000 nM
Cc1cc(OC2CCN(C(=O)N3CCC(O)(Cn4cnc5c(cnn5-c5ccc(F)cc5)c4=O)CC3)CC2)no1 [Compound I-922]	1000 to 10000 nM
Cn1cc(OC2CCN(C(=O)N3CCC(O)(Cn4cnc5c(cnn5-c5ccc(F)cc5)c4=O)CC3)CC2)cn1 [Compound I-923]	1000 to 10000 nM

Same assay, conditions: USP7 assay A and B (table does not say which assay per compound); read-out: USP7_IC50

SMILES	IC50
C#CC(=O)N1CC[C@H]1C(=O)N1CCC(O)(Cn2cnc3c(cnn3-c3ccc(F)cc3)c2=O)CC1 [Compound I-803]	200 to 1000 nM
C=CS(=O)(=O)N[C@H](Cc1ccccc1)C(=O)N1CCC(O)(Cn2cnc3c(cnn3-c3ccccc3)c2=O)CC1 [Compound I-814]	200 to 1000 nM
CN(C)CCN(C)c1cccc(-n2ncc3c(=O)n(CC4(O)CCN(C(=O)c5ccc(F)cc5)CC4)cnc32)c1 [Compound I-823]	200 to 1000 nM
O=C(c1ccc(F)cc1)N1CCC(O)(Cn2cnc3c(cnn3-c3ccc(F)c(N4CCNCC4)c3)c2=O)CC1 [Compound I-824]	200 to 1000 nM
O=C(C1CC1)N1CCC(O)(Cn2cnc3c(cnn3-c3ccc(-c4ccc(O[C@H]5CCNC5)cc4)cc3)c2=O)CC1 [Compound I-841]	200 to 1000 nM
O=C(C1CC1)N1CCC(O)(Cn2cnc3c(cnn3-c3ccc(-c4ccc(O[C@@H]5CCNC5)cc4)cc3)c2=O)CC1 [Compound I-842]	200 to 1000 nM
O=C(C1CC1)N1CCC(O)(Cn2cnc3c(cnn3-c3ccc(C4CCNCC4)cc3)c2=O)CC1 [Compound I-843, 5-((1-(cyclopropanecarbonyl)-4-hydroxypiperidin-4-yl)methyl)-1-(4-(piperidin-4-yl)phenyl)-1H-pyrazolo[3,4-d]pyrimidin-4(5H)-one]	200 to 1000 nM
CN1CCN(c2ccc(-c3ccc(-n4ncc5c(=O)n(CC6(O)CCN(C(=O)C7CC7)CC6)cnc54)cc3)cc2)CC1 [Compound I-844]	< 200 nM
O=C(c1ccc(OC(F)F)cc1)N1CCC(O)(Cn2cnc3c(cnn3-c3ccc(CO)cc3)c2=O)CC1 [Compound I-851]	200 to 1000 nM
CN(C)CCOc1cc(-n2ncc3c(=O)n(CC4(O)CCN(C(=O)C5CC5)CC4)cnc32)ccc1-c1ccccc1 [Compound I-856]	200 to 1000 nM
Cn1ncc2c(=O)n(CC3(O)CCN(C(=O)C[C@@H](c4ccccc4)C(F)(F)F)CC3)cnc21 [Compound I-861]	> 10000 nM
Cc1nnc(-c2ccc(C(=O)N3CCC(O)(Cn4cnc5c(cnn5-c5ccc(F)cc5)c4=O)CC3)cc2)o1 [Compound I-911]	1000 to 10000 nM
